Data as given in patent US20230089867A1, “CYCLIC PENTAMER COMPOUNDS AS PROPROTEIN CONVERTASE SUBTILISIN/KEXIN TYPE 9 (PCSK9) INHIBITORS FOR THE TREATMENT OF METABOLIC DISORDER” (Novartis AG, priority 2018, published 2023).

Target: human PCSK9 (Homo sapiens, UniProt Q8NBP7)
Test: PCSK9 ligand binding TR-FRET assay (interference with binding of human PCSK9 to human LDLR)
Conditions: for Max % inhibition: PCSK9 FRET assay, efficacy (Amax), 100% = 1 uM unlabeled human PCSK9, 0% = DMSO; for IC50: TR-FRET, human PCSK9 Alexa Fluor 647 / human LDLR extracellular domain-Europium Kryptate, read-out: PCSK9 FRET Assay IC50
Outline: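 Threefold compound dilutions were pre-incubated 30 min with PCSK9, after which 4 nM Europium Kryptate-tagged human LDLR ectodomain was added for a further 2 h.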

human PCSK9, sequence (Q8NBP7 153-692): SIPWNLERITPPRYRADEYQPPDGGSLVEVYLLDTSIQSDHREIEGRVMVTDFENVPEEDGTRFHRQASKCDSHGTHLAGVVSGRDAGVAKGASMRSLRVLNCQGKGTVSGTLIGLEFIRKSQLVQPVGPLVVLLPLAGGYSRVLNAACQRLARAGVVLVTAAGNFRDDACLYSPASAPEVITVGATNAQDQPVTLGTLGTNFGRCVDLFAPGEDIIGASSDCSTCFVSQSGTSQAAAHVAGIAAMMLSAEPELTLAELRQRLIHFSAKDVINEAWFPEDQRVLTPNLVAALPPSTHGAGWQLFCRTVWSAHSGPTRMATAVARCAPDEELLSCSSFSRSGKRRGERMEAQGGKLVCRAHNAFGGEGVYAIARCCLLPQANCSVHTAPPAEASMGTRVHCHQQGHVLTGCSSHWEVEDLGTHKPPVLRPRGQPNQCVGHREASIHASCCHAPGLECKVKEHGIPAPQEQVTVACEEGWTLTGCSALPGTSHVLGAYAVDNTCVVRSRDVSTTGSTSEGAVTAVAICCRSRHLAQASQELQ
human PCSK9, sequence (Q8NBP7 31-152 partner limits assumed): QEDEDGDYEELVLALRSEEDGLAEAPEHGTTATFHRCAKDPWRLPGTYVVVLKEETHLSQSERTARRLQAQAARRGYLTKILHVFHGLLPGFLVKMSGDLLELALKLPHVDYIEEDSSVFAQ

Structure (SMILES) | Max % inhibition [%] | IC50 [nM]
COC[C@@H]1NC(=O)[C@H](C)N(Cc2ccc(Cl)cc2Oc2ccc(-c3cnc(CN(C)C)n3C)cc2)C(=O)C[C@@H](C)C(=O)N(C)[C@@H](CC2CC2)CNC(=O)C[C@H](Cc2ccc(Cl)cc2)N(C)C1=O [Compound 5, (2S,5S,8S,13S,16R)-1-(4-chloro-2-(4-(2-((dimethylamino)methyl)-1-methyl-1H-imidazol-5-yl)phenoxy)benzyl)-8-(4-chlorobenzyl)-13-(cyclopropylmethyl)-5-(methoxymethyl)-2,7,14,16-tetramethyl-1,4,7,11,14-pentaazacyclooctadecane-3,6,10,15,18-pentaone] | 83.48 | 9.6
COC[C@@H]1NC(=O)[C@H](C)N(Cc2c(C)cccc2Oc2ccc(-c3cnc(CN(C)C)n3C)cc2)C(=O)C[C@@H](Cc2ccccc2)C(=O)N(C)[C@@H](C)CNC(=O)C[C@H](Cc2ccc(Cl)cc2)N(C)C1=O [Compound 88, (2S,5S,8S,13S,16R)-16-benzyl-8-(4-chlorobenzyl)-1-(2-(4-(2-((dimethylamino)methyl)-1-methyl-1H-imidazol-5-yl)phenoxy)-6-methylbenzyl)-5-(methoxymethyl)-2,7,13,14-tetramethyl-1,4,7,11,14-pentaazacyclooctadecane-3,6,10,15,18-pentaone] | 90.30 | 40.1
C[C@H]1CNC(=O)C[C@H](Cc2ccc(Cl)cc2)N(C)C(=O)[C@H](CO)NC(=O)[C@H](C)N(Cc2ccc(Cl)cc2Oc2ccc(-c3cnc(CN(C)C)n3C)cc2)C(=O)C[C@@H](Cc2ccccc2)C(=O)N1C [Compound 142, (2S,5S,8S,13S,16R)-16-benzyl-1-(4-chloro-2-(4-(2-((dimethylamino)methyl)-1-methyl-1H-imidazol-5-yl)phenoxy)benzyl)-8-(4-chlorobenzyl)-5-(hydroxymethyl)-2,7,13,14-tetramethyl-1,4,7,11,14-pentaazacyclooctadecane-3,6,10,15,18-pentaone] | 100.91 | 1.2
COC[C@@H]1NC(=O)[C@H](C)N(Cc2ccc(Cl)cc2Oc2ccc(-c3cnc(CN(C)C)n3C)cc2)C(=O)C[C@@H](C)C(=O)N(C)[C@@H](C)CNC(=O)C[C@H](Cc2ccc(Cl)cc2)N(C)C1=O [Compound 161, (2S,5S,8S,13S,16R)-1-(4-chloro-2-(4-(2-((dimethylamino)methyl)-1-methyl-1H-imidazol-5-yl)phenoxy)benzyl)-8-(4-chlorobenzyl)-5-(methoxymethyl)-2,7,13,14,16-pentamethyl-1,4,7,11,14-pentaazacyclooctadecane-3,6,10,15,18-pentaone] | 92.62 | 14.7
C[C@H]1CNC(=O)C[C@H](Cc2ccc(Cl)cc2)N(C)C(=O)[C@H](CO)NC(=O)[C@H](C)N(Cc2ccccc2Oc2ccc(-c3cnc(CN(C)C)n3C)cc2)C(=O)CCC(=O)N1C [Compound 66, (2S,5S,8S,13S)-8-(4-chlorobenzyl)-1-(2-(4-(2-((dimethylamino)methyl)-1-methyl-1H-imidazol-5-yl)phenoxy)benzyl)-5-(hydroxymethyl)-2,7,13,14-tetramethyl-1,4,7,11,14-pentaazacyclooctadecane-3,6,10,15,18-pentaone] | 91.88 | 77.2

Second part, the compound after the results:

Max % inhibition [%] | IC50 [nM] | Structure (SMILES)
107.64 | 1.2 | COC[C@@H]1NC(=O)[C@H](C)N(Cc2ccc(Cl)cc2Oc2ccc(-c3cnc([C@@H](C)N4CCCC4)n3C)cc2)C(=O)C[C@@H](Cc2ccccc2)C(=O)N(C)[C@H]2CCCC[C@@H]2NC(=O)C[C@H](Cc2ccc(Cl)cc2)N(C)C1=O [Compound 152, (4S,7S,10S,14R,16aS,20aS)-14-benzyl-11-(4-chloro-2-(4-(1-methyl-2-((R)-1-(pyrrolidin-1-yl)ethyl)-1H-imidazol-5-yl)phenoxy)benzyl)-4-(4-chlorobenzyl)-7-(methoxymethyl)-5,10,16-trimethylhexadecahydrobenzo[l][1,4,7,11,14]pentaazacyclooctadecine-2,6,9,12,15(3H)-pentaone]
105.07 | 2.6 | COC[C@@H]1NC(=O)[C@H](CO)N(Cc2ccc(Cl)cc2Oc2ccc(-c3cnc(CN(C)C)n3C)cc2)C(=O)C[C@@H](Cc2ccccc2)C(=O)N(C)[C@@H](C)CNC(=O)C[C@H](Cc2ccc(Cl)cc2)N(C)C1=O [Compound 11, (2S,5S,8S,13S,16R)-16-benzyl-1-(4-chloro-2-(4-(2-((dimethylamino)methyl)-1-methyl-1H-imidazol-5-yl)phenoxy)benzyl)-8-(4-chlorobenzyl)-2-(hydroxymethyl)-5-(methoxymethyl)-7,13,14-trimethyl-1,4,7,11,14-pentaazacyclooctadecane-3,6,10,15,18-pentaone]
87.45 | 2.7 | COC[C@@H]1NC(=O)[C@H](C)N(Cc2c(F)cc(F)cc2Oc2ccc(-c3cnc(CN(C)C)n3C)cc2)C(=O)C[C@@H](Cc2ccccc2)C(=O)N(C)[C@H]2CCCC[C@@H]2NC(=O)C[C@H](Cc2ccc(Cl)cc2)N(C)C1=O [Compound 208, (4S,7S,10S,14R,16aS,20aS)-14-benzyl-4-(4-chlorobenzyl)-11-(2-(4-(2-((dimethylamino)methyl)-1-methyl-1H-imidazol-5-yl)phenoxy)-4,6-difluorobenzyl)-7-(methoxymethyl)-5,10,16-trimethylhexadecahydrobenzo[l][1,4,7,11,14]pentaazacyclooctadecine-2,6,9,12,15(3H)-pentaone]
105.97 | 1 | COCCN(CCOC)C(=O)C[C@H]1C(=O)N[C@@H](COC)C(=O)N(C)[C@@H](Cc2ccc(Cl)cc2)CC(=O)N[C@H]2CCCC[C@@H]2N(C)C(=O)[C@H](Cc2ccccc2)CC(=O)N1Cc1ccc(Cl)cc1Oc1ccc(-c2cnc(CN(C)C)n2C)cc1 [Compound 218, 2-((4S,7S,10S,14R,16aS,20aS)-14-benzyl-11-(4-chloro-2-(4-(2-((dimethylamino)methyl)-1-methyl-1H-imidazol-5-yl)phenoxy)benzyl)-4-(4-chlorobenzyl)-7-(methoxymethyl)-5,16-dimethyl-2,6,9,12,15-pentaoxodocosahydrobenzo[l][1,4,7,11,14]pentaazacyclooctadecin-10-yl)-N ,N-bis(2-methoxyethyl)acetamide]
92.71 | 1.7 | COC[C@@H]1NC(=O)[C@H](C)N(Cc2ccc(Cl)cc2Oc2ccc(-c3cnc(CN4CCC4)n3C)cc2)C(=O)C[C@@H](Cc2ccccc2)C(=O)N(C)[C@H]2CCCC[C@@H]2NC(=O)C[C@H](Cc2ccc(Cl)cc2)N(C)C1=O [Compound 16, (4S,7S,10S,14R,16aS,20aS)-11-(2-(4-(2-(azetidin-1-ylmethyl)-1-methyl-1H-imidazol-5-yl)phenoxy)-4-chlorobenzyl)-14-benzyl-4-(4-chlorobenzyl)-7-(methoxymethyl)-5,10,16-trimethylhexadecahydrobenzo[l][1,4,7,11,14]pentaazacyclooctadecine-2,6,9,12,15(3H)-pentaone]
